Where “and” joins values, the source holds several entries; their conditions need not be identical. Equal values may be shown once. Read-outs that look alike come from different tables or passages of the source. Positions of bridges follow the written chain, without caps; N, C: chain ends. Non-standard residues stand in square brackets, D forms with d. Residues, ends and D or L forms follow the SMILES beside them. *: point of attachment. DOTA = O=C(O)CN1CCN(CC(=O)O)CCN(CC(=O)*)CCN(CC(=O)O)CC1; Cha = N[C@@H](CC1CCCCC1)C(=O)O
How the values were obtained:
uPAR•uPA interaction = target: T1, uPAR•uPA interaction (Homo sapiens, UniProt Q03405); test: SPR competition assay of the uPAR•uPA interaction; type: binding; settings: for IC50: competition of uPAR•uPA interaction, 2 nM uPAR, 20 °C, n = 3
T1 construct: Recombinant human uPAR^1–283 was expressed; made in house; host or cells: Drosophila melanogaster S2 cells
T1 sequence (Q03405 23-305): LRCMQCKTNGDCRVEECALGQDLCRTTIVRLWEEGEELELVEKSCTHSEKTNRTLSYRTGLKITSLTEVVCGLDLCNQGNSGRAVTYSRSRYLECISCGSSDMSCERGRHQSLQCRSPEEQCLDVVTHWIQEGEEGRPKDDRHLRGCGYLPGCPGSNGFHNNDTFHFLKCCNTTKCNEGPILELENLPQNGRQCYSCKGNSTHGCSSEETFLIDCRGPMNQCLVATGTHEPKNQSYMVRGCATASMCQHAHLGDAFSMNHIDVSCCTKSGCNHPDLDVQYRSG
Description: The IC50-values of antagonistic peptides on the uPAR•uPA interaction were determined with SPR using a Biacore T200™ or Biacore 3000™ instruments (Cytiva) essentially as described[4],[56],[77]. In brief, we immobilized high levels of pro-uPA^S356A (0.1 pmol pro-uPA/mm^2) on a CM5 sensor chip via amine coupling. The experiments were conducted by injecting 2 nM uPAR in presence of a threefold dilution series of a given antagonistic peptide for 300 s with a flow rate of 50 µL/min at 20 °C. The high immobilization levels result in binding conditions that are entirely controlled by mass transport limitations (MTL). Accordingly, the observed association rates (vobs) are directly proportional to the concentrations of binding-active uPAR in solution. To determine the IC50, we also measured a standard curve of uPAR binding (a twofold dilution series of 0.06 to 2 nM uPAR, linear due to MTL). The running buffer was 10 mM HEPES, 150 mM NaCl, 3 mM EDTA, and 0.05% (v/v) surfactant P-20 at pH 7.4, and the regeneration buffer was 0.1 M acetic acid in 0.5 M NaCl.

uPAR [1] = target: T2, uPAR (Homo sapiens, UniProt Q03405); test: Nano-DSF thermal stability of uPAR•peptide complexes; settings: for Tm (apparent melting temperature of uPAR•peptide complex): 15 µM uPAR, 30 µM peptide, PBS pH 7.4, n = 3
T2 construct: Recombinant human uPAR^1–283 was expressed; made in house; host or cells: Drosophila melanogaster S2 cells
T2 sequence (Q03405 23-305): as above
Description: The thermal stability of the uPAR•peptide complexes was analyzed with Nano-DSF using a Prometheus NT.48™ (Nanotemper). uPAR (15 µM) was mixed with twofold excess of peptide (30 µM) in PBS pH 7.4 and incubated for 15 min at RT to ensure complex formation. Samples containing either 15 µM uPAR or 30 µM of each peptide were included as controls. The samples were loaded into standard capillaries and in triplicates. To unfold the proteins, the samples were exposed to an increasing temperature gradient from 20 to 95 °C with a ramping rate of 1 °C/min. The excitation power was set to 50% (Ex.280 nm) and the fluorescence emission collected at 330 nm and 350 nm. The melting temperatures of the complexes were determined in the PR.ThermControl software (Nanotemper) from the first derivative of the fluorescence ratio (350 nm/330 nm).

uPAR [2] = target: T2, uPAR; test: SPR real-time binding kinetics, peptides in solution and immobilised uPAR
Description: The real-time binding kinetics of uPAR•peptide interactions were measured with SPR using a Biacore T200™(Cytiva); essentially as described in[56],[77]. In brief, uPAR was covalently immobilised on a CM5 sensor chip via amine coupling resulting in a surface density of 1157–1581 RU (~ 33–44 fmol/mm^2). The binding kinetics for the peptides to immobilised uPAR were measured using a single cycle protocol. In this setup, peptides were injected as five serial two-fold dilutions with a contact time of 200 s. After the last analyte injection, the dissociation time was set to 1000 s. The sensor chip was regenerated with two consecutive injections of 0.1 M acetic acid in 0.5 M NaCl. All experiments were conducted at 20 °C with a flow rate of 50 µL/min in 10 mM HEPES, 150 mM NaCl, 3 mM EDTA, and 0.05% (v/v) surfactant P-20 at pH 7.4. The kinetic rate constants (kon and koff) were determined by non-linear regression fitting of the curves to the simple bimolecular interaction model (BiacoreT200 Evaluation™ 3.0 software).

[3] = [63Cu]-DOTA labelled peptides, single-cycle SPR
[4] = single cycle SPR, immobilised uPAR, 20 °C
[5] = single cycle SPR, immobilised uPAR, 20 °C, 1:1 model
[6] = single cycle SPR, immobilised uPAR, 20 °C, read-out: kon

IC50 (uPAR•uPA interaction) [nM] | koff (uPAR [2]; [4]) [s⁻¹] | Kd (uPAR [2]; [5]) | kon (uPAR [2]; [6]) [M⁻¹ s⁻¹] | SMILES | Tm (apparent melting temperature of uPAR•peptide complex) (uPAR [1]) | also measured
48 ± 2 | 0.00557 ± 1e-05 | 26.9 nM | 207000 ± 1000 | CC(C)C[C@H](NC(=O)[C@H](Cc1ccc(O)cc1)NC(=O)[C@@H](CCCNC(=N)N)NC(=O)[C@@H](CO)NC(=O)[C@H](Cc1ccccc1)NC(=O)[C@H](CC1CCCCC1)NC(=O)[C@H](CC(=O)O)NC(=O)CN1CCN(CC(=O)O)CCN(CC(=O)O)CCN(CC(=O)O)CC1)C(=O)N[C@@H](Cc1c[nH]c2ccccc12)C(=O)N[C@@H](CO)C(=O)O [1b] | 58.8 °C | IC50 of DOTA-conjugated peptide compared to unconjugated peptide (uPAR•uPA interaction; (1b) vs (1), (8b) vs (8)): four to fivefold higher; Kd (uPAR [2]; [3]): 86.5 nM; koff (uPAR [2]; [3]): 0.0175 ± 0.0003 s⁻¹; kon (uPAR [2]; [3]): 2.02 ± 0.03 105 M-1 s-1; reduction of affinity on DOTA-conjugation (uPAR [2]; real-time binding kinetics, vs unconjugated peptides): 8–11 fold
10.9 ± 0.3 | 0.0044 ± 1e-05 | 12.5 nM | 352000 ± 1000 | CC(C)C[C@@H]1NC(=O)[C@H](Cc2ccc(O)cc2)NC(=O)[C@H](NC(=O)[C@@H](CO)NC(=O)[C@H](Cc2ccccc2)NC(=O)[C@H](CC2CCCCC2)NC(=O)[C@H](CC(=O)O)NC(=O)CN2CCN(CC(=O)O)CCN(CC(=O)O)CCN(CC(=O)O)CC2)CSSC[C@@H](C(=O)O)NC(=O)[C@H](Cc2c[nH]c3ccccc23)NC1=O [3b] ({DOTA}-D[Cha]F[dS][dC]YLWC-OH; disulfide 5-9) | ~ 70 °C | increase in apparent Tm (uPAR [1]; DOTA-conjugated peptides, compared to (1b)): approximately 11 °C
32.2 ± 0.9 | 0.00717 ± 1e-05 | 33.6 nM | 213000 ± 400 | CC(C)C[C@H](NC(=O)[C@H](Cc1ccc(O)cc1)NC(=O)[C@@H](CCCNC(=N)N)NC(=O)[C@@H](CO)NC(=O)[C@H](Cc1ccccc1)NC(=O)[C@H](CC1CCCCC1)NC(=O)[C@H](CC(=O)O)NC(=O)CNC(=O)CNC(=O)[C@@H](CO)NC(=O)CNC(=O)[C@H](CCC(=O)O)NC(=O)[C@H](CCC(=O)O)NC(=O)CN1CCN(CC(=O)O)CCN(CC(=O)O)CCN(CC(=O)O)CC1)C(=O)N[C@@H](Cc1c[nH]c2ccccc12)C(=O)N[C@@H](CO)C(=O)O [4b] ({DOTA}-EEG[dS]GGD[Cha]F[dS][dR]YLWS-OH) | 55.6 ± 0.03 °C | –
7.7 ± 0.2 | 0.003562 ± 3e-06 | 5 nM and 4.97 nM | 717000 ± 1000 | CC(C)C[C@@H]1NC(=O)[C@H](Cc2ccc(O)cc2)NC(=O)[C@H](NC(=O)[C@@H](CO)NC(=O)[C@H](Cc2ccccc2)NC(=O)[C@H](CC2CCCCC2)NC(=O)[C@H](CC(=O)O)NC(=O)CNC(=O)CNC(=O)[C@@H](CO)NC(=O)CNC(=O)[C@H](CCC(=O)O)NC(=O)[C@H](CCC(=O)O)NC(=O)CN2CCN(CC(=O)O)CCN(CC(=O)O)CCN(CC(=O)O)CC2)CSSC[C@@H](C(N)=O)NC(=O)[C@H](Cc2c[nH]c3ccccc23)NC1=O [11b] ({DOTA}-EEG[dS]GGD[Cha]F[dS][dC]YLWC-NH2; disulfide 11-15) | – | Kd (uPAR [2]; [3]): 22.6 nM; koff (uPAR [2]; [3]): 0.0036 ± 1e-05 s⁻¹

The next lines start with the compound.

SMILES | IC50 (uPAR•uPA interaction) [nM] | koff (uPAR [2]; [4]) [s⁻¹] | Kd (uPAR [2]; [5]) | kon (uPAR [2]; [6]) [M⁻¹ s⁻¹] | Tm (apparent melting temperature of uPAR•peptide complex) (uPAR [1]) | also measured
CC(C)C[C@H](NC(=O)[C@H](Cc1ccc(O)cc1)NC(=O)[C@@H](CCCNC(=N)N)NC(=O)[C@@H](CO)NC(=O)[C@H](Cc1ccccc1)NC(=O)[C@H](CC1CCCCC1)NC(=O)[C@@H](N)CC(=O)O)C(=O)N[C@@H](Cc1c[nH]c2ccccc12)C(=O)N[C@@H](CO)C(=O)O [compound 1, AE105] | 8.8 ± 0.2 | 0.00396 ± 1e-05 | 2.52 nM | 1.568e+06 ± 5000 | – | –
CC(C)C[C@H](NC(=O)[C@H](Cc1ccc(O)cc1)NC(=O)[C@@H](CCCCN)NC(=O)[C@@H](CO)NC(=O)[C@H](Cc1ccccc1)NC(=O)[C@H](CC1CCCCC1)NC(=O)[C@@H](N)CC(=O)O)C(=O)N[C@@H](Cc1c[nH]c2ccccc12)C(=O)N[C@@H](CO)C(=O)O [compound 2] (H-D[Cha]F[dS][dK]YLWS-OH; N-terminus assumed) | 50.9 ± 2 | 0.0298 ± 0.0001 | 50.2 nM | 594000 ± 3000 | – | –
CC(C)C[C@@H]1NC(=O)[C@H](Cc2ccc(O)cc2)NC(=O)[C@H](NC(=O)[C@@H](CO)NC(=O)[C@H](Cc2ccccc2)NC(=O)[C@H](CC2CCCCC2)NC(=O)[C@@H](N)CC(=O)O)CSSC[C@@H](C(=O)O)NC(=O)[C@H](Cc2c[nH]c3ccccc23)NC1=O [compound 3] (H-D[Cha]F[dS][dC]YLWC-OH; disulfide 5-9; N-terminus assumed) | 6.5 ± 0.3 | 0.00365 ± 1e-05 | 3.32 nM | 1.098e+06 ± 4000 | – | –
CC(C)C[C@H](NC(=O)[C@H](Cc1ccc(O)cc1)NC(=O)[C@@H](CO)NC(=O)[C@@H](CO)NC(=O)[C@H](Cc1ccccc1)NC(=O)[C@H](CC1CCCCC1)NC(=O)[C@H](CC(=O)O)NC(=O)CNC(=O)CNC(=O)[C@@H](CO)NC(=O)CNC(=O)[C@H](CCC(=O)O)NC(=O)[C@@H](N)CCC(=O)O)C(=O)N[C@@H](Cc1c[nH]c2ccccc12)C(=O)N[C@@H](CO)C(=O)O [compound 5] (H-EEG[dS]GGD[Cha]F[dS][dS]YLWS-OH; N-terminus assumed) | – | 0.054 ± 0.0003 | – | 201000 ± 2000 | – | fold decrease in potency (uPAR•uPA interaction; compared to (4)): 7.8 fold
CC(C)C[C@@H]1NC(=O)[C@@H]2CCCN2C(=O)[C@H](NC(=O)[C@@H](CO)NC(=O)[C@H](Cc2ccccc2)NC(=O)[C@H](CC2CCCCC2)NC(=O)[C@H](CC(=O)O)NC(=O)CNC(=O)CNC(=O)[C@@H](CO)NC(=O)CNC(=O)[C@H](CCC(=O)O)NC(=O)[C@@H](N)CCC(=O)O)CSSC[C@@H](C(=O)O)NC(=O)[C@H](Cc2c[nH]c3ccccc23)NC1=O [compound 7] (H-EEG[dS]GGD[Cha]F[dS][dC]PLWC-OH; disulfide 11-15 (inferred); N-terminus assumed) | – | – | – | – | – | KD (uPAR [2]; [5]): N.B
CC(C)C[C@H](NC(=O)[C@H](Cc1ccc(O)cc1)NC(=O)[C@@H](CCCNC(=N)N)NC(=O)[C@@H](CO)NC(=O)[C@H](Cc1ccccc1)NC(=O)[C@H](CC1CCCCC1)NC(=O)[C@@H](N)CC(=O)O)C(=O)N[C@@H](Cc1c[nH]c2ccccc12)C(=O)N[C@@H](CO)C(N)=O [compound 8] | 2.1 ± 0.1 | 0.000998 ± 1e-06 | 0.53 nM | 1.89e+06 ± 3000 | – | –
CC(C)C[C@@H]1NC(=O)[C@H](Cc2ccc(O)cc2)NC(=O)[C@H](NC(=O)[C@@H](CO)NC(=O)[C@H](Cc2ccccc2)NC(=O)[C@H](CC2CCCCC2)NC(=O)[C@@H](N)CC(=O)O)CSSC[C@@H](C(N)=O)NC(=O)[C@H](Cc2c[nH]c3ccccc23)NC1=O [compound 9] (H-D[Cha]F[dS][dC]YLWC-NH2; disulfide 5-9; N-terminus assumed) | 8.9 ± 0.3 | 0.002063 ± 3e-06 | 2.9 nM | 712000 ± 2000 | – | –
CC(C)C[C@@H]1NC(=O)[C@H](Cc2ccc(O)cc2)NC(=O)[C@H](NC(=O)[C@@H](CO)NC(=O)[C@H](Cc2ccccc2)NC(=O)[C@H](CC2CCCCC2)NC(=O)[C@H](CC(=O)O)NC(=O)CNC(=O)CNC(=O)[C@@H](CO)NC(=O)CNC(=O)[C@H](CCC(=O)O)NC(=O)[C@@H](N)CCC(=O)O)CSSC[C@@H](C(N)=O)NC(=O)[C@H](Cc2c[nH]c3ccccc23)NC1=O [compound 11] (H-EEG[dS]GGD[Cha]F[dS][dC]YLWC-NH2; disulfide 11-15; N-terminus assumed) | – | 0.005015 ± 8e-06 | – | 500000 ± 2000 | ~ 65 °C | –
